Test results taken from article PMC7023222, “Ionic Liquid Forms of the Antimalarial Lumefantrine in Combination with LFCS Type IIIB Lipid-Based Formulations Preferentially Increase Lipid Solubility, In Vitro Solubilization Behavior and In Vivo Exposure” (Pharmaceutics, 2019).
Values joined by “and” are separate entries in the source; they are usually repeats but may differ in a detail not shown here. Equal values may be shown once. Read-outs that look alike come from different tables or passages of the source.

How the values were obtained:
[1] = cited from earlier work
[2] = set-up: method as in PMID 30376336; conditions: cited from earlier work
[3] = Protocol: Equilibrium Solubility Studies. […] Each equilibrium solubility experiment was completed in triplicate. Equilibrium solubility was defined when solubility measured across two consecutive days varied less than 5%. The samples were allowed to equilibrate at 37 °C and were vortex-mixed twice a day to ensure the compounds were well dispersed in the LBF. The samples were left to equilibrate for at least 3 days. […] At each time point, samples were then centrifuged at 37 °C (14,800 rpm (21,000× g), Thermo Scientific, Heraeus Pico 21 Centrifuge) and aliquots of 20 mg were taken from the supernatant and dissolved in 1 mL of chloroform: methanol (2:1, v/v). The chloroform: methanol solution was then diluted 20-fold with water: acetonitrile (1:1, v/v). The samples were then assayed by HPLC to determine the concentration of compound in formulation.
[4] = In vitro dispersion and digestion test of LBFs (drug solubilization); assay type: physicochemical; conditions: for % of drug present in the aqueous phase compared to total drug loading: end of digestion phase (60 min), loading 80% of equilibrium solubility, n = 3
Protocol: In Vitro Drug Solubilization. […] Drug loading in each formulation was at 80% of the equilibrium solubility of the drug or API-IL in that formulation to maintain a consistent thermodynamic activity across all LBFs. In vitro dispersion and digestion experiments were conducted using a pH-stat apparatus (Metrohm® AG, Herisau, Switzerland), which comprised a Titrando 802 propeller stirrer/804 Ti Stand combination, a glass pH electrode (iUnitrode), and two 800 Dosino dosing units coupled to 10 mL autoburettes (Metrohm® AG). The pH-stat was connected to a PC and operated via Tiamo 2.0 software (Metrohm®). […] The pancreatic enzyme was prepared by mixing 1 g of porcine pancreatin with 5 mL of lipolysis buffer and 20 µL of 5 M NaOH. After mixing, this was then centrifuged at 2880× g at 5 °C for 10 min (Crown Scientific, Eppendorf AG Centrifuge 5804 R, Sydney Australia) and the supernatant used as the enzyme solution. The lipolysis buffer was prepared by dissolving 0.474 g of tris maleate, 0.206 g of CaCl2·H2O, and 8.775 g of NaCl in one liter of distilled water to form a 2 mM tris maleate 1.4 mM CaCl2·H2O 150 mM NaCl buffer; the pH was adjusted to 6.5 using NaOH. The micellar solution was prepared by dissolving 0.783 g of NaTDC and 0.291 g of PC in 500 mL of lipolysis buffer to form a 3 mM NaTDC 0.75 mM PC solution. […] This drop in pH was detected by the pH-stat controller, which then titrated the FA produced using an autoburette that added NaOH to keep the pH at a set point (0.6 M NaOH for MCFs, and 0.2 M NaOH for LCFs). By knowing the quantity of NaOH added and assuming stoichiometric titration, this indirectly quantified the extent of FA production (as a measure of digestion). […] The mass of the drug recovered in the aqueous phase and the pellet phase was then quantified by HPLC [35, 36]. The supernatant and pellet samples were diluted with acetonitrile (1:10 v/v) and then mobile phase (1:10 v/v), and lumefantrine concentrations in the samples determined using HPLC [35, 36, 37, 38].

[5] = Supersaturation during in vitro dispersion/digestion testing; assay type: physicochemical; conditions: for maximum supersaturation ratio SR^Mdisp (APmax/APdigest): dispersion, time 0 min; for maximum supersaturation ratio SR^Mdig (APmax/APdigest): end of digestion, 60 min
Protocol: Supersaturation During In Vitro Testing. The degree of supersaturation of drug concentrations in the aqueous phase during formulation dispersion/digestion was assessed by comparing the measured aqueous phase concentration to equilibrium drug solubility in blank aqueous phase obtained by dispersion and digestion of blank (i.e., non-drug loaded) formulation under identical conditions. Due to the physical state of lumefantrine docusate (i.e., an amorphous semi-solid), the equilibrium solubility assessment was conducted by dissolving 3 mg of IL in 10 µL of ethanol in a microcentrifuge tube and then adding 200 mg of aqueous phase obtained from the blank digestions (n = 3 for each time point for each formulation). The contents were subsequently vortex-mixed for 30 s. […] Supersaturation was assessed at 4 time points during the in vitro dispersion and digestion tests (0 min (end dispersion), and 5, 30, and 60 min (post digestion)) for the Type II-MC, IIIB-MC, IIIB-LC, and IV formulations.
The supersaturation ratio (SR) provides an indication of thermodynamic activity and the likelihood of either drug precipitation, or enhanced absorption from an LBF, where the higher the number, the more supersaturated and therefore the more likely to precipitate during in vitro digestion. The maximum supersaturation ratio (SR^M) provides a measure of the maximum supersaturation pressure that would be generated by digestion of an LBF, assuming no precipitation and is calculated from the following:(1) SR^M=APmax/APdigest where APmax is the maximum possible aqueous phase concentration of drug during the in vitro dispersion and digestion test (i.e., in the absence of any precipitation), and APdigest is the equilibrium solubility of the drug in blank aqueous phase (i.e., where the aqueous phase was obtained from a digestion of blank LBF). Williams et al. have previously proposed that sustainable supersaturation most commonly occurs when SR^M < 3, and that exceeding this threshold increases the likelihood of drug precipitation during in vitro dispersion and digestion tests. Only the Type II-MC, IIIB-MC, IIIB-LC, and IV formulations were evaluated as these were the four formulations chosen to proceed to the in vivo bioavailability studies. The figures also depict APmax, as well as the drug solubility in the aqueous colloidal phase of the blank LBF (APdigest). […] This was most apparent at early time points for the Type II-MCF formulation where SR^M was ~20 and at later time points post digestion for the Type IIIB-MCF where SR^M was >40. […] Similarly, the SR^M for the Type IIIB-MCF at the end of digestion was the highest, but majority of lumefantrine docusate remained solubilized at 60 min (69% solubilized).

[6] = Oral bioavailability study in rats; assay type: in vivo, male Sprague-Dawley rats
Protocol: Oral Bioavailability Studies. […] Experiments were conducted in fasted male Sprague-Dawley rats (240–320 g). The day prior to the study, the rats were anaesthetized with isoflurane and the right carotid artery was surgically cannulated with polyethylene tubing to facilitate blood collection (procedure described previously) [40]. Animals were allowed to recover overnight and were fasted up to 12 h prior to and 8 h after dose administration, with water provided ad libitum. The rats were fed 8 h after dosing.
Animals were then administered a further 0.5 mL of water. […] The aqueous suspension comprised 0.5% w/v sodium carboxymethylcellulose, 0.4% w/v Tween 80, and 0.9% NaCl in water.
Blood samples were collected via the carotid artery cannula at pre-dose, 0.5, 1, 2, 3, 4, 6, 8, 10, and 24 h after oral administration of the formulations. Blood samples were centrifuged at 6700× g for 5 min and plasma was collected and stored at −20 °C until assayed by LC-MS. Statistically significant differences between formulations were determined by one-way analysis of variance (ANOVA) at a test significance level of α ≤ 0.05, followed by a Tukey’s multiple comparisons test.
Plasma Sample Preparation and Analysis. Lumefantrine concentrations in rat plasma were assayed via LC-MS using a modification of a previously published assay for lumefantrine [41]. […] Plasma samples or calibration standards (50 µL) were spiked with 10 µL of internal standard (halofantrine hydrochloride, 1000 ng/mL in 1:1 v/v water: acetonitrile) followed by vortex mixing for 10 s. To precipitate plasma proteins, acetonitrile (200 µL) was added and samples vortex mixed for 1 min. The samples were then allowed to stand at room temperature for 30 min. After centrifugation at 10,000× g for 10 min at room temperature, 150 µL of supernatant was transferred into vials for analysis.
Lumefantrine plasma samples were analyzed using a Shimadzu LCMS-8050 system (Shimadzu Scientific Instruments, Kyoto, Japan) consisting of a CBM-20A system controller, a DGU-20A5R degassing unit, two Nexera X2 LC-30 AD liquid chromatograph pumps, a Nexera X2 SIL-30AC autosampler, a CTO-20A column oven (held at 40 °C), and a triple quadrupole mass spectrometer with an electrospray ionization (ESI) interface. Data acquisition and processing was performed using LC-MS Solutions software (Shimadzu, Kyoto, Japan). The desolvation line (DL) and heat block were kept at 250 °C and 400 °C, respectively. The nebulizing gas flow and drying gas flow rates were 3.0 L/min and 10.0 L/min, respectively. Mobile phase A was Milli-Q water containing 0.1% w/v formic acid, and mobile phase B was acetonitrile containing 0.1% w/v formic acid. […] Mobile phase B was then held at 80% for 0.5 min, followed by a linear decrease to 30% over the next 0.5 min after which conditions were held for another 0.5 min.

[7] = set-up: method as in PMID 23531442; conditions: cited from earlier work

CCC(C)n1ncn(-c2ccc(N3CCN(c4ccc(OCC5COC(Cn6cncn6)(c6ccc(Cl)cc6Cl)O5)cc4)CC3)cc2)c1=O.CCCCC(CC)COC(=O)CC(C(=O)OCC(CC)CCCC)S(=O)(=O)O (stereo not shown) [itraconazole docusate]
exposure compared with the commercial formulation Sporanox ([1]; rat, in vivo): greater exposure
exposure, fold higher than an itraconazole suspension of equal dose ([1]; rat, in vivo): ~ 20 fold

CCCCC(CC)COC(=O)CC(C(=O)OCC(CC)CCCC)S(=O)(=O)O.COc1cc2nccc(Oc3ccc(NC(=O)C4(C(=O)Nc5ccc(F)cc5)CC4)cc3)c2cc1OC [Cabozantinib docusate, cabozantinib docusate]
bioavailability, fold enhanced compared to an aqueous suspension of cabozantinib free base ([2]; long-chain SEDDS): 1.8 fold
bioavailability, fold enhanced compared to an aqueous suspension of cabozantinib free base ([2]; medium-chain SEDDS): 1.5 fold

CCCCC(CC)COC(=O)CC(C(=O)OCC(CC)CCCC)S(=O)(=O)O.CCCCN(CCCC)CC(O)c1cc(Cl)cc2c1-c1ccc(Cl)cc1C2=Cc1ccc(Cl)cc1 (racemic) [lumefantrine docusate]
miscibility in the Type IV formulation [3]: miscible
solubility in LBF, fold higher than lumefantrine free base [3]: 2- to 80 fold
solubility in the Type IV formulation (proportions) [3]: > 1:1 w/w
% of drug present in the aqueous phase compared to total drug loading ([4]; Type IIIB-LCF): 89%
% of drug present in the aqueous phase compared to total drug loading ([4]; Type IIIB-MCF): 69%
drug concentration in the aqueous phase, fold higher than the equivalent lumefantrine free base formulations ([4]; after dispersion and digestion, range over all LBFs): 2-to-55 fold
maximum supersaturation ratio SR^Mdisp (APmax/APdigest) ([5]; Type II-MCF): ~ 20 and 19.9
supersaturation ratio SR (measured aqueous phase concentration / equilibrium solubility in blank aqueous phase) ([5]; Type II-MCF, during dispersion): 5.5
maximum supersaturation ratio SR^Mdig (APmax/APdigest) ([5]; Type II-MCF): 8.0
maximum supersaturation ratio SR^Mdisp (APmax/APdigest) ([5]; Type IIIB-LCF): 3.6
maximum supersaturation ratio SR^Mdig (APmax/APdigest) ([5]; Type IIIB-LCF): 7.9
maximum supersaturation ratio SR^Mdisp (APmax/APdigest) ([5]; Type IIIB-MCF): 5.7
maximum supersaturation ratio SR^Mdig (APmax/APdigest) ([5]; Type IIIB-MCF): > 40 and 43.2
supersaturation throughout the in vitro test ([5]; Type IV formulation): no supersaturation was evident
maximum supersaturation ratio SR^Mdisp (APmax/APdigest) ([5]; Type IV): 6.3
maximum supersaturation ratio SR^Mdig (APmax/APdigest) ([5]; Type IV): 8.1
maximum supersaturation ratio SR^M ([5]; in all cases: Type II-MC, IIIB-MC, IIIB-LC and IV formulations): higher than 3
exposure, fold enhanced when compared to the free base ([6]; IL in LBF vs free base suspensions 85 mg/kg): up to 50 fold
increase in exposure after oral administration compared to aqueous suspension of the free base ([6]; Type IIIB LC formulation 65 mg/kg vs aqueous suspension 85 mg/kg): ~ 50 fold
increase in exposure after oral administration compared to lipid suspension of the free base ([6]; Type IIIB LC formulation 65 mg/kg vs free base suspension in Type IIIB-LCF 85 mg/kg): ~ 10 fold
systemic exposure (AUC 0 to 24 h), statistical comparison ([6]; Type IIIB-LCF 65 mg/kg, one-way ANOVA, p < 0.05, n = 4): significantly higher exposure than all other formulations tested
systemic exposure (AUC 0 to 24 h), statistical comparison with both free base suspensions ([6]; Type IIIB-MCF 65 mg/kg, one-way ANOVA, p < 0.05, n = 4): significantly higher exposure

CCCCN(CCCC)CC(O)c1cc(Cl)cc2c1-c1ccc(Cl)cc1/C2=C/c1ccc(Cl)cc1 (stereo not shown) [lumefantrine]
oral bioavailability [7]: 4–11%

C(=C\c1ccccc1)/CN1CCN(C(c2ccccc2)c2ccccc2)CC1.CCCCCCCCCCOS(=O)(=O)O [cinnarizine decyl sulfate]
exposure, fold higher than equivalent dose of cinnarizine free base as a suspension in the same SEDDS formulation ([1]; rats, SEDDS formulation): ~ 2 fold
